Test results taken from PubChem BioAssay (NCI).
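Five concentrations, 48 hours, 96-well plates. Definition used: TGI = concentration required for complete inhibition of growth.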

Legend:
Experiment in all cases: growth of human tumour cells (NCI), 48 h
U251 CNS = tested on: U251 CNS
KM12 colon = tested on: KM12 colon
OVCAR-5 ovarian = tested on: OVCAR-5 ovarian
786-0 renal = tested on: 786-0 renal
HCC-2998 colon = tested on: HCC-2998 colon
OVCAR-3 ovarian = tested on: OVCAR-3 ovarian
RXF 393 renal = tested on: RXF 393 renal
UO-31 renal = tested on: UO-31 renal
SK-MEL-5 melanoma = tested on: SK-MEL-5 melanoma
A498 renal = tested on: A498 renal
SNB-75 CNS = tested on: SNB-75 CNS
SF-268 CNS = tested on: SF-268 CNS
SK-OV-3 ovarian = tested on: SK-OV-3 ovarian
SW-620 colon = tested on: SW-620 colon
MDA-MB-435 = tested on: MDA-MB-435
PC-3 prostate = tested on: PC-3 prostate
MDA-MB-231 breast = tested on: MDA-MB-231 breast
BT-549 breast = tested on: BT-549 breast

| Compound | TGI (U251 CNS) [µM] | TGI (KM12 colon) [µM] | TGI (OVCAR-5 ovarian) [µM] | TGI (786-0 renal) [µM] | TGI (HCC-2998 colon) [µM] | TGI (OVCAR-3 ovarian) [µM] | TGI (RXF 393 renal) [µM] | TGI (UO-31 renal) [µM] | TGI (SK-MEL-5 melanoma) [µM] | TGI (A498 renal) [µM] | TGI (SNB-75 CNS) [µM] | TGI (SF-268 CNS) [µM] | TGI (SK-OV-3 ovarian) [µM] | TGI (SW-620 colon) [µM] | TGI (MDA-MB-435) [µM] | TGI (PC-3 prostate) [µM] | TGI (MDA-MB-231 breast) [µM] | TGI (BT-549 breast) [µM] |
| --- | --- | --- | --- | --- | --- | --- | --- | --- | --- | --- | --- | --- | --- | --- | --- | --- | --- | --- |
| CCOC(=O)C1=C(OC(OCC)C(CC)[Se]c2ccccc2)CCC1 (configuration not stated) | 25.3 | > 100 | 69.6 | 30.5 | > 100 | 69.3 | 37.7 | 96.2 | 31.2 | > 100 | 69.8 | 36.8 | > 100 | – | – | – | – | – |
| COc1cc([C@@H]2c3cc4c(cc3[C@@H](NCc3cccc(C#N)c3)C3COC(=O)[C@@H]32)OCO4)cc(OC)c1O (some centres not stated) | 1.93 | 4.66 | 14.6 | 2.62 | 4.51 | 8.47 | 19.6 | 5.52 | 13 | 4.27 | 4.45 | > 100 | 4.12 | 11.1 | – | – | – | – |
| O=[N+]([O-])c1ccc(-c2nn3c(C45CC6CC(CC(C6)C4)C5)nnc3s2)c(Cl)c1 | > 100 | > 100 | > 100 | > 100 | > 100 | > 100 | > 100 | > 100 | > 100 | > 100 | > 100 | > 100 | > 100 | > 100 | > 100 | > 100 | > 100 | – |
| O=[N+]([O-])c1cccc(Nc2nc(Cl)nc(Cl)n2)c1 | > 100 | > 100 | > 100 | > 100 | > 100 | > 100 | – | > 100 | > 100 | – | > 100 | > 100 | > 100 | > 100 | – | – | – | – |
| O=[N+]([O-])c1cccc2nccc(NCCN3CCOCC3)c12 | > 53.9 | 40 | 38.4 | > 57.5 | 26.4 | 25.2 | 31.9 | > 100 | 22.3 | 29.3 | 47.2 | > 66.7 | > 100 | 33.7 | 81.8 | 39.1 | 71.1 | – |
| COC(=O)/C=C(\C)CCC1SC1(C)C (configuration not stated) | > 100 | > 100 | > 100 | > 100 | > 100 | – | > 100 | > 100 | > 100 | > 100 | > 100 | > 100 | > 100 | > 100 | – | – | – | – |
| O=[N+]1[C@H](c2ccccc2)[C@H](c2ccccc2)N1[O-] | 33.5 | 45.3 | 35.8 | 26.8 | – | 30.1 | 28.3 | 28.5 | 30.9 | 67.3 | 37.2 | 58.7 | 96.5 | 28.2 | 34.3 | 31.6 | 38.2 | – |
| CCOC(=O)C(=CNc1ccc(F)c(F)c1)C(=O)OCC | > 100 | > 100 | > 100 | > 100 | > 100 | > 100 | > 100 | > 100 | > 100 | > 100 | > 100 | > 100 | > 100 | > 100 | > 100 | > 100 | > 100 | – |
| O=C1OC([C@H](O)c2cccnc2)c2ccccc21 (some centres not stated) | > 10 | > 10 | > 10 | > 10 | > 10 | > 10 | > 10 | > 10 | > 10 | – | > 10 | > 10 | > 10 | > 10 | > 10 | > 10 | > 10 | – |
| O=c1c(Sc2c(SCSc3cnc4ccccc4c3Sc3c[nH]c4ccccc4c3=O)cnc3ccccc23)c[nH]c2ccccc12 | > 100 | > 100 | > 100 | > 100 | > 100 | > 100 | – | > 100 | > 100 | – | > 100 | > 100 | – | > 100 | > 100 | – | > 100 | > 100 |
| CCOC(=O)CCC(NC(=O)c1ccc(NC(OC)c2nc3cc(C(F)(F)F)ccc3nc2-c2ccccc2)cc1)C(=O)OCC (configuration not stated) | 29.8 | 19.1 | 31.5 | 26.6 | 30 | 35.8 | 27.2 | 26.8 | 30 | 34.5 | 36.5 | 30.9 | 34.9 | 20.7 | – | – | – | – |
| CN(C)CCN1CCc2c([nH]c3ccccc23)C1c1cccnc1 (configuration not stated) | > 100 | > 100 | > 100 | > 100 | > 100 | > 100 | > 100 | > 100 | > 100 | > 100 | > 100 | > 100 | > 100 | > 100 | – | – | – | – |
| CC(=O)Nc1cccc(N2C(=O)/C(=C\c3cccc(Oc4ccccc4)c3)SC2c2ccccc2)c1 (configuration not stated) | > 100 | > 100 | > 100 | > 100 | > 100 | > 100 | > 100 | > 100 | > 100 | > 100 | – | > 100 | > 100 | > 100 | > 100 | – | > 100 | > 100 |
| O=C1NCN(c2ccccc2)C12CCN(CC1COc3ccccc3O1)CC2 (configuration not stated) | 79.6 | – | > 100 | > 100 | > 100 | > 100 | 96.5 | > 100 | > 100 | > 100 | 71.4 | > 100 | > 100 | > 100 | > 100 | > 100 | > 100 | – |
| O=C(O)CSc1n[nH]c(-c2ccco2)n1 | > 100 | > 100 | > 100 | > 100 | > 100 | > 100 | > 100 | > 100 | > 100 | > 100 | > 100 | – | > 100 | > 100 | – | – | – | – |
